Data set [1] can be described thus: Drug uptake in 22Rv1 tumor bearing mouse assessed as tumor to normal tissue ratio measured at 0.85 mg/kg, iv after 24 hrs by NIR-II imaging analysis. In kind it is ADME, organism-based. The settings on record: in vivo.
For data set [2], the target named is T1, Glutamate carboxypeptidase 2 (Homo sapiens, UniProt Q04609). Nature of the data set: Binding affinity to human recombinant PSMA (unknown origin) assessed as inhibition constant incubated for 60 mins in presence of NAAG.
T1 sequence (Q04609 whole entry): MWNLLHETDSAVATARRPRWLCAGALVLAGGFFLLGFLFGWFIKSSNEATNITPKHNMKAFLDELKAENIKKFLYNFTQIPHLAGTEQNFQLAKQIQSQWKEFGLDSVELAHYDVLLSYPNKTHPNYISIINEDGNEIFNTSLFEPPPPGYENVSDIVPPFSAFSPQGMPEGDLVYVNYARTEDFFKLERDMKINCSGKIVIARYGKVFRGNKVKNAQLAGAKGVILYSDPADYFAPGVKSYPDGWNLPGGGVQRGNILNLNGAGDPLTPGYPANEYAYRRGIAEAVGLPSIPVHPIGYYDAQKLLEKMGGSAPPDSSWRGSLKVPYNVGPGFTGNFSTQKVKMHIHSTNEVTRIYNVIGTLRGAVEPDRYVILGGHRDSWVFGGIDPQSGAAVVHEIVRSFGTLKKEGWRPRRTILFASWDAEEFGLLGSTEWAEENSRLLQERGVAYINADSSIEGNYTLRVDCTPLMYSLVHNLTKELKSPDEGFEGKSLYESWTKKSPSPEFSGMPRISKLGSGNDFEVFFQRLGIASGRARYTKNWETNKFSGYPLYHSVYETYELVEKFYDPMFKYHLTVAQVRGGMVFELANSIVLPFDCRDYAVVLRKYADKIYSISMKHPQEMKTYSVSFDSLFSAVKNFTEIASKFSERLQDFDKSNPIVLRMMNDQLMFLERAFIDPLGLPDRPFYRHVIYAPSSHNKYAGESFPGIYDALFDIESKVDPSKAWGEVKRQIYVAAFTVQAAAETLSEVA
Data set [3] is described as follows: Drug uptake in 22Rv1 tumor bearing mouse assessed as fluorescence in muscle measured at 0.85 mg/kg, iv after 24 hrs by NIR-II imaging analysis. The settings on record: in vivo. In kind it is ADME, organism-based, Muscle tissue.
Data set [4] in a line: Drug uptake in 22Rv1 tumor bearing mouse assessed as fluorescence in lung measured at 0.85 mg/kg, iv after 24 hrs by NIR-II imaging analysis. The format is ADME, organism-based. The following applies: in vivo.
The nature of data set [5]: Drug uptake in 22Rv1 tumor bearing mouse assessed as fluorescence in spleen measured at 0.85 mg/kg, iv after 24 hrs by NIR-II imaging analysis. The format is ADME, organism-based. The following applies: in vivo.
Data set [6] can be described thus: Drug uptake in 22Rv1 tumor bearing mouse assessed as fluorescence in brain measured at 0.85 mg/kg, iv after 24 hrs by NIR-II imaging analysis. The following applies: in vivo. In kind it is ADME, organism-based.
Data set [7] is described as follows: Drug uptake in 22Rv1 tumor bearing mouse assessed as fluorescence in liver measured at 0.85 mg/kg, iv after 24 hrs by NIR-II imaging analysis. In kind it is ADME, organism-based. The settings on record: in vivo.
Data set [8] in a line: Drug uptake in 22Rv1 tumor bearing mouse assessed as fluorescence in kidney measured at 0.85 mg/kg, iv after 24 hrs by NIR-II imaging analysis. In kind it is ADME, organism-based. The settings on record: in vivo.
The nature of data set [9]: Drug uptake in 22Rv1 tumor bearing mouse assessed as fluorescence in tumor measured at 0.85 mg/kg, iv after 24 hrs by NIR-II imaging analysis. In kind it is ADME, organism-based, Neoplasm. The following applies: in vivo.
Data set [10] is described as follows: Drug uptake in 22Rv1 tumor bearing mouse assessed as fluorescence in heart measured at 0.85 mg/kg, iv after 24 hrs by NIR-II imaging analysis. The settings on record: in vivo. In kind it is ADME, organism-based.
A short description of data set [11]: Drug uptake in 22Rv1 tumor bearing mouse measured at 0.85 mg/kg, iv after 24 hrs in presence of (2S)-2-[[(1S)-1-Carboxy-5-[(4-iodobenzoyl)amino]pentyl]carbamoylamino]pentanedioic acid by NIR-II imaging analysis. In kind it is ADME, organism-based, Neoplasm. The following applies: in vivo.
The nature of data set [12]: Drug uptake in 22Rv1 tumor bearing mouse assessed as fluorescence in stomach measured at 0.85 mg/kg, iv after 24 hrs by NIR-II imaging analysis. The following applies: in vivo. In kind it is ADME, organism-based.
Data set [13] is described as follows: Drug uptake in 22Rv1 tumor bearing mouse assessed as fluorescence in intestine measured at 0.85 mg/kg, iv after 24 hrs by NIR-II imaging analysis. In kind it is ADME, organism-based. The following applies: in vivo.
The nature of data set [14]: Drug uptake in 22Rv1 tumor bearing mouse assessed as fluorescence in pancreas measured at 0.85 mg/kg, iv after 24 hrs by NIR-II imaging analysis. In kind it is ADME, organism-based. The following applies: in vivo.
A short description of data set [15]: Drug uptake in 22Rv1 tumor bearing mouse assessed as tumor to liver ratio measured at 0.85 mg/kg, iv after 24 hrs by NIR-II imaging analysis. The format is ADME, organism-based. The settings on record: in vivo.
Data set [16] addresses T1, Glutamate carboxypeptidase 2. In words: Binding affinity to PSMA (unknown origin) assessed as inhibition constant.

As usually defined, the Ki is the equilibrium dissociation constant of an inhibitor or competing ligand from its target.

In the case of `CN(CCC(=O)NCCCC[C@H](NC(=O)N[C@@H](CCC(=O)O)C(=O)O)C(=O)O)c1ccc(-c2c3c(c(-c4ccc(N(C)CCC(=O)NCCCC[C@H](NC(=O)N[C@@H](CCC(=O)O)C(=O)O)C(=O)O)cc4)c4nsnc24)N=S=N3)cc1`, the Ratio in data set [1] is listed as 6.66.
As to `O=C(N[C@@H](CCCCNC(=O)c1cc(F)cc(C(=O)NCCCC[C@H](NC(=O)N[C@@H](CNc2c(O)c(=O)c2=O)C(=O)O)C(=O)O)c1)C(=O)O)N[C@@H](CNc1c(O)c(=O)c1=O)C(=O)O`, the inhibitory constant (Ki) in data set [2] was 0.41 nM.
Same read-out and setting: the figure for `O=C(NC(CCCCNC(=O)c1ccc(I)cc1)C(=O)O)N[C@@H](CNc1c(O)c(=O)c1=O)C(=O)O` (stereo not given in full) is 1.35 nM.
`CN(CCC(=O)NCCCC[C@H](NC(=O)N[C@@H](CNc1c(O)c(=O)c1=O)C(=O)O)C(=O)O)c1ccc(-c2c3c(c(-c4ccc(N(C)CCC(=O)NCCC[C@H](NC(=O)N[C@@H](CNc5c(O)c(=O)c5=O)C(=O)O)C(=O)O)cc4)c4nsnc24)N=S=N3)cc1`: the Drug uptake entry is listed as “Not Active” in data set [3]; “Not Active” in [4]; “Not Active” in data set [5]; “Not Active” in data set [6]; “Active” in data set [7]; “Active” in data set [8]. In addition, the Drug uptake result in [9] is “Active”; in data set [10] it was “Not Active”; in data set [11], “Not Active”; in [12] it was “Not Active”; in data set [13], “Not Active”; in data set [14], “Not Active”. For the same compound, the inhibition constant Ki in data set [2] stood at 1.07 nM. In addition, the Ratio in data set [1] is on record as 4.79; in data set [15] it was 5.39.
For the compound `O=C(O)CC[C@H](Nc1c(N[C@@H](CCCCNC(=O)c2cc(I)cc(C(=O)NCCCC[C@H](Nc3c(N[C@@H](CCC(=O)O)C(=O)O)c(=O)c3=O)C(=O)O)c2)C(=O)O)c(=O)c1=O)C(=O)O`, in [2], the Ki stood at 107 nM.
Same read-out and setting: the figure for `O=C(O)CC(=O)NC[C@H](NC(=O)N[C@@H](CCCCNC(=O)c1ccc(I)cc1)C(=O)O)C(=O)O` is 221 nM.
Still for that read-out and setting: the figure for `O=C(O)CC(=O)NC[C@H](NC(=O)N[C@@H](CCCCNC(=O)c1cc(I)cc(C(=O)NCCCC[C@H](NC(=O)N[C@@H](CNC(=O)CC(=O)O)C(=O)O)C(=O)O)c1)C(=O)O)C(=O)O` is 33.8 nM; for `O=C(N[C@@H](CCCCNC(=O)c1ccc(F)cc1)C(=O)O)N[C@@H](CNc1c(O)c(=O)c1=O)C(=O)O` it is 0.9 nM.
Regarding `CC1(C)C(/C=C2/C(=O)C(/C=C3\N(CCCCCC(=O)NCCCC[C@H](NC(=O)N[C@@H](CCC(=O)O)C(=O)O)C(=O)O)c4ccccc4C3(C)C)=C2[O-])=[N+](CCCCCC(=O)NCCCC[C@H](NC(=O)N[C@@H](CCC(=O)O)C(=O)O)C(=O)O)c2ccccc21`, the Ki in [16] was determined as 0.74 nM.
For the compound `O=C(N[C@@H](CCCCNC(=O)c1cc(I)cc(C(=O)NCCCC[C@H](NC(=O)N[C@@H](CNc2c(O)c(=O)c2=O)C(=O)O)C(=O)O)c1)C(=O)O)N[C@@H](CNc1c(O)c(=O)c1=O)C(=O)O`, the Ki in data set [2] turned out to be 0.4 nM.
The same measure, in the same setting: as for `O=C(O)CC[C@H](NC(=O)N[C@@H](CCCNC(=O)c1ccc(F)cc1)C(=O)O)C(=O)O`, the figure is 0.86 nM.

The values are drawn from ChEMBL document CHEMBL5338776, “Design and Characterization of Squaramic Acid-Based Prostate-Specific Membrane Antigen Inhibitors for Prostate Cancer” (J Med Chem, 2023).
